The structures appear in SMILES notation.

Data set [1] addresses T1, human EAAT3 (Homo sapiens, UniProt P43005).
T1 construct: expressed in transfected cells
T1 sequence (P43005 1-524): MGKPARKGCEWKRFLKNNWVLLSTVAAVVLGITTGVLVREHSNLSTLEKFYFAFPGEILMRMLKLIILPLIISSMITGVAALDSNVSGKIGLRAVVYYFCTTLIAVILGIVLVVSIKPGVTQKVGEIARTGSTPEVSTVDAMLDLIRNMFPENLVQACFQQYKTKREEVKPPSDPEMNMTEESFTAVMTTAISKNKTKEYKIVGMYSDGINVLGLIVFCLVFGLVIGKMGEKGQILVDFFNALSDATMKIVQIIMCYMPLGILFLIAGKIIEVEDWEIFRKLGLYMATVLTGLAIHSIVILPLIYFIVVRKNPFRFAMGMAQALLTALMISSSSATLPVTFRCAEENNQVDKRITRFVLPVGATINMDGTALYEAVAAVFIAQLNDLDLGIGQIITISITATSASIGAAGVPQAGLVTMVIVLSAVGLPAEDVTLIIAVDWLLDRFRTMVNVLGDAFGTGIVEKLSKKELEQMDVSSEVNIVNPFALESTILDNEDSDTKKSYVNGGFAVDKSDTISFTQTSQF
The experiment in a line: FLIPR Membrane Potential (FMP) assay, antagonist potency at human EAAT3. Type of data set: cell-based. Conditions: HEK-293 cells stably expressing human EAAT3; L-glutamate as agonist at EC80; antagonist applied 15 min before; Kb by Cheng-Prusoff equation. The protocol: The FLIPR Membrane Potential (FMP) Assay
HEK-293 cells stably expressing human EAAT3 were seeded at 55 000 cells/well in growth medium (DMEM glutamate free (Invitrogen 11960-044), 1% Pen Strep (10 ml/l GIBCO BRL No 15140-023), 10% FCS non dialysed heat inactivated, 5 mg/l puromycin) in poly-D-lysine treated 96-well black microtiter plates with clear-bottom. After 24 h, the growth medium was removed and 100 μl/well of Krebs buffer (140 mM NaCl, 4.7 mM KCl, 2.5 mM CaCl2, 1.2 mM MgCl2, 11 mM HEPES, 10 mM D-glucose, pH=7.4) added. The cells were then loaded by adding 100 μl/well FMP assay dye (FLIPR Membrane Potential assay reagent, Molecular Devices). The 96-well plates were then incubated at 37° C. for 1 h. The depolarization of the cells will cause more dye to enter in the cells, where it will bind to intracellular proteins and lipids and cause an increase in the fluorescence signal. Antagonist potency at human EAAT3 was determined by using L-glutamate as agonist at a concentration which gives 80% of the maximum response. The antagonists were applied 15 min before the application of the agonist L-glutamate. The assays were performed at room temperature and measurements done by using a Fluorometric Imaging Plate Reader (FLIPR, Molecular Devices) and filter #2. Responses were measured as peak increase in fluorescence minus basal (i.e. fluorescence without addition of L-glutamate). Kb was determined using the Cheng-Prusoff equation Kb=IC50/[1+(A/EC50)], where IC50 is the concentration of the antagonist producing 50% inhibition, A is the concentration of the agonist against which the IC50 is being determined (at EC80) and EC50 is the concentration of the agonist producing 50% […].

As usually defined, the Kb is the affinity of an antagonist, worked out from how it opposes an agonist. Low readings indicate a more potent antagonist, high ones a less potent antagonist. As for `CC(C)c1ncncc1-c1cc(C(=O)NC(C)(C)C)cc(-c2ccc(Cl)c(F)c2)n1` [Example 9, N-tert-Butyl-2-(4-chloro-3-fluorophenyl)-6-(4-propan-2-yl-pyrimidin-5-yl)-pyridine-4-carboxamide], the antagonist dissociation constant (Kb) in data set [1] came out at 260 nM.
The same measure, in the same setting: the figure for `CC(C)c1ccncc1-c1cc(C(=O)NC(C)(C)C)cc(-c2ccc(F)cc2)n1` [Example 27, N-tert-Butyl-2-(4-fluorophenyl)-6-(4-propan-2-yl-pyridin-3-yl)-pyridine-4-carboxamide] is 170 nM.
The same measure, in the same setting: the figure for `CC(C)c1ncncc1-c1cc(C(=O)NC(C)(C)CO)cc(-c2ccc(Cl)cc2)n1` [Example 13, 2-(4-Chlorophenyl)-N-(1-hydroxy-2-methylpropan-2-yl)-6-(4-propan-2-yl-pyrimidin-5-yl)-pyridine-4-carboxamide] is 200 nM; for `CC(C)c1ncncc1-c1cc(C(=O)NC(C)(C)C)cc(-c2ccc(F)cc2)n1` [Example 2, N-tert-Butyl-2-(4-fluorophenyl)-6-(4-propan-2-yl-pyrimidin-5-yl)-pyridine-4-carboxamide] it is 120 nM.
Same read-out and setting: the figure for `Cc1ccc(-c2cc(C(=O)NC(C)(C)C)cc(-c3cncnc3C(C)C)n2)cc1F` [Example 16, N-tert-Butyl-2-(3-fluoro-4-methylphenyl)-6-(4-propan-2-yl-pyrimidin-5-yl)-pyridine-4-carboxamide] is 250 nM.
In data set [1], `CC(C)c1ccncc1-c1cc(C(=O)NC(C)(C)C)cc(-c2ccc(C(F)(F)F)cc2)n1` [Example 25, N-tert-Butyl-2-(4-propan-2-yl-pyridin-3-yl)-6-[4-(trifluoromethyl)-phenyl]-pyridine-4-carboxamide] had a Kb of 350 nM. This Kb and that of the molecule before are within 1.5-fold of each other.
In general, melting point refers to the temperature, or range, at which the solid turns liquid. With `CC(C)c1ncncc1-c1cc(C(=O)NC(C)(C)C)cc(-c2ccc(F)c(F)c2)n1` [Example 7, N-tert-Butyl-2-(3,4-difluorophenyl)-6-(4-propan-2-yl-pyrimidin-5-yl)-pyridine-4-carboxamide], the melting point is 178 °C. Moreover, the antagonist equilibrium constant (Kb) in data set [1] turned out to be 110 nM.
As to `CC(C)c1ncncc1-c1cc(C(=O)NC(C)(C)C)cc(-c2ccc(C(F)(F)F)cc2)n1` [Example 3, N-tert-Butyl-2-(4-propan-2-yl-pyrimidin-5-yl)-6-[4-(trifluoromethyl)-phenyl]-pyridine-4-carboxamide], in data set [1], the antagonist equilibrium constant (Kb) came out at 110 nM.
Still for that read-out and setting: the figure for `Cc1ccc(-c2cc(C(=O)NC(C)(C)C)cc(-c3cncnc3C(C)C)n2)cc1` [Example 6, N-tert-Butyl-2-(4-methylphenyl)-6-(4-propan-2-yl-pyrimidin-5-yl)-pyridine-4-carboxamide] is 140 nM; for `CCc1ncncc1-c1cc(C(=O)NC(C)(C)C)cc(-c2ccc(F)cc2)n1` [Example 19, N-tert-Butyl-2-(4-ethyl-pyrimidin-5-yl)-6-(4-fluorophenyl)-pyridine-4-carboxamide] it is 180 nM; for `Cc1ccncc1-c1cc(C(=O)NC(C)(C)C)cc(-c2ccc(F)cc2)n1` [Example 4, N-tert-Butyl-2-(4-fluorophenyl)-6-(4-methylpyridin-3-yl)-pyridine-4-carboxamide] it is 260 nM.
For the molecule `Cc1ccncc1-c1cc(C(=O)NC(C)(C)C)cc(-c2ccc(Cl)cc2)n1` [Example 5, N-tert-Butyl-2-(4-chlorophenyl)-6-(4-methylpyridin-3-yl)-pyridine-4-carboxamide], in data set [1], the Kb was 220 nM.
Same read-out and setting: the figure for `CC(C)(C)NC(=O)c1cc(-c2ccc(C(F)(F)F)cc2)nc(-c2cncnc2C(C)(C)C)c1` [Example 24, N-tert-Butyl-2-(4-tert-butyl-pyrimidin-5-yl)-6-[4-(trifluoromethyl)-phenyl]-pyridine-4-carboxamide] is 290 nM.
Same read-out and setting: the figure for `CCC(C)(C)NC(=O)c1cc(-c2ccc(F)cc2)nc(-c2cncnc2C(C)C)c1` [Example 18, 2-(4-Fluorophenyl)-N-(2-methylbutan-2-yl)-6-(4-propan-2-yl-pyrimidin-5-yl)-pyridine-4-carboxamide] is 120 nM; for `CC(C)c1ncncc1-c1cc(C(=O)NC(C)(C)C)cc(-c2ccc(C3CC3)cc2)n1` [Example 10, N-tert-Butyl-2-(4-cyclopropyl-phenyl)-6-(4-propan-2-yl-pyrimidin-5-yl)-pyridine-4-carboxamide] it is 290 nM; for `CC(C)(C)NC(=O)c1cc(-c2ccc(F)cc2)nc(-c2cncnc2C(C)(C)C)c1` [Example 22, N-tert-Butyl-2-(4-tert-butyl-pyrimidin-5-yl)-6-(4-fluorophenyl)-pyridine-4-carboxamide] it is 63 nM.
Same read-out and setting: the figure for `CC(C)(C)NC(=O)c1cc(-c2ccc(F)cc2)nc(-c2cncnc2C2CC2)c1` [Example 21, N-tert-Butyl-2-(4-cyclopropylpyrimidin-5-yl)-6-(4-fluorophenyl)-pyridine-4-carboxamide] is 560 nM.
In turn, `Cc1cc(-c2cc(C(=O)NC(C)(C)C)cc(-c3cncnc3C(C)C)n2)ccc1F` [Example 8, N-tert-Butyl-2-(4-fluoro-3-methylphenyl)-6-(4-propan-2-yl-pyrimidin-5-yl)-pyridine-4-carboxamide] had a Kb in data set [1] of 260 nM.
`CC(C)c1ncncc1-c1cc(C(=O)NC(C)(C)C(F)(F)F)cc(-c2ccc(Cl)cc2)n1` [Example 14, 2-(4-Chlorophenyl)-6-(4-propan-2-yl-pyrimidin-5-yl)-N-(1,1,1-trifluoro-2-methylpropan-2-yl)-pyridine-4-carboxamide]: the Kb in data set [1] turned out to be 270 nM.
In turn, `CC(C)c1ncncc1-c1cc(C(=O)NC2(C)CCS(=O)(=O)C2)cc(-c2ccc(F)cc2)n1` (racemic) [Example 17, (RS)-2-(4-Fluorophenyl)-N-(3-methyl-1,1-dioxothiolan-3-yl)-6-(4-propan-2-yl-pyrimidin-5-yl)-pyridine-4-carboxamide] displayed a Kb in data set [1] of 270 nM.
On the same count and under the same terms, the figure for `CC(C)c1ncncc1-c1cc(C(=O)NC(C)(C)C)cc(-c2ccc(Cl)cc2)n1` [Example 1, N-tert-Butyl-2-(4-chlorophenyl)-6-(4-propan-2-yl-pyrimidin-5-yl)-pyridine-4-carboxamide] is 100 nM; for `CC(C)c1ncncc1-c1cc(C(=O)NC(C)(C)C2CC2)cc(-c2ccc(Cl)cc2)n1` [Example 11, 2-(4-Chlorophenyl)-N-(2-cyclopropyl-propan-2-yl)-6-(4-propan-2-yl-pyrimidin-5-yl)-pyridine-4-carboxamide] it is 150 nM.
Consider `COc1ccc(-c2cc(C(=O)NC(C)(C)C)cc(-c3cncnc3C(C)C)n2)cc1` [Example 15, N-tert-Butyl-2-(4-methoxyphenyl)-6-(4-propan-2-yl-pyrimidin-5-yl)-pyridine-4-carboxamide], for which, in data set [1], the antagonist dissociation constant (Kb) came out at 310 nM.
Take `CC(C)c1ccncc1-c1cc(C(=O)NC(C)(C)C)cc(-c2ccc(Cl)cc2)n1` [Example 26, N-tert-Butyl-2-(4-chlorophenyl)-6-(4-propan-2-yl-pyridin-3-yl)-pyridine-4-carboxamide]: the Kb in data set [1] is 310 nM.
For the molecule `CC(C)(C)NC(=O)c1cc(-c2ccc(Cl)cc2)nc(-c2cncnc2C(C)(C)C)c1` [Example 23, N-tert-Butyl-2-(4-tert-butylpyrimidin-5-yl)-6-(4-chlorophenyl)-pyridine-4-carboxamide], the Kb in data set [1] turned out to be 140 nM.
As to `Cc1ncncc1-c1cc(C(=O)NC(C)(C)C)cc(-c2ccc(F)cc2)n1` [Example 20, N-tert-Butyl-2-(4-fluorophenyl)-6-(4-methylpyrimidin-5-yl)-pyridine-4-carboxamide], the antagonist dissociation constant (Kb) in data set [1] stood at 480 nM.
Still for that read-out and setting: the figure for `CC(C)c1ncncc1-c1cc(C(=O)NC(C)(C)C#N)cc(-c2ccc(Cl)cc2)n1` [Example 12, 2-(4-Chlorophenyl)-N-(2-cyanopropan-2-yl)-6-(4-propan-2-yl-pyrimidin-5-yl)-pyridine-4-carboxamide] is 470 nM.
